Measured values taken from US9980942B2, “Rejuvenation of precursor cells” (Children's Hospital Medical Center, priority 2012, dated 2018).
Entries after “also recorded” stand apart in the source; their conditions may differ.

Tests used:
dorsal skin = experiment: Wound healing of full-thickness excision wounds after CASIN injection; assay type: in vivo, mice
Procedure: To further assess the effects of in vivo administration of CASIN on aging parameters in the skin, aged mice are treated with CASIN as described in Example 5. The treated and untreated aged and young mice are then tested for and wound healing, as described below.
On day 28 after initial treatment with CASIN, each mouse is tested with 25 mm oblong full-thickness excision wounds (6 mice of each type per experiment), including the striated muscle layer (panniculus carnosus), on the dorsal skin of treated and untreated mice. One day after surgery a clear thin film of dried exudate covers the wounds in both untreated and treated mice. Build-up of dehydrated wound crusts or scabs begin at day 3 and become subsequently more extensive. In the aged, untreated mice, scabs are thicker and extravasation of blood, visible in the gaps within the scabs, is more frequent and extensive than that in the treated mice. In control young mice, and in treated aged mice, loss of wound scabs begins at day 17 and is complete in all mice by day 24 with wounds well-healed and epithelial covering restored. In contrast, the scabs in untreated aged mice start to come off partially around day 14, resulting in a scab with a gaping red wound field, which is evident even at 22 days. Healing of untreated aged mice wounds remains incomplete on day 24, and complete healing in all mice is observed between 25 and 31 days. These experiments indicate that transient treatment (days 1-5) with CASIN causes improved healing of skin wounds.

aged LT-HSCs [1] = experiment: Apoptosis and cell cycle staining (Hoechst/Pyronin Y, Annexin V); assay type: cell-based, mouse; conditions: 5 μM CASIN, 16 hrs
Procedure: Hoechst/PY staining was performed as previously described (Passegue et al., 2005). Briefly, 25,000 FACS-sorted LT-HSCs were incubated for 16 hrs in HBSS+10% FBS±CASIN (5 μM) in a water jacketed incubator at 37° C., 5% CO2, 3% O2. Then HOECHST 33342 (Invitrogen) was added directly to the medium at a final concentration of 20 μg/ml and samples were kept in incubation at 37° C., 5% CO2, 3% O2 for 45 min. PironinY (Sigma-Aldrich) was then added at a concentration of 1 μg/ml, and cells were incubated for additional 15 minutes. Cells were resuspended and incubated with anti-Annexin V (BD Pharmingen) according to manufacturer's instruction, washed and immediately analyzed on a LSRII (BD Biosciences).

skin epithelium = experiment: In vivo rejuvenation of skin epithelium (immunohistochemistry, skin thickness); parameters: species or system mice
Procedure: (§1) To test the extent to which CASIN rejuvenates skin and intestinal epithelium in vivo, aged (22-24 month old B1 6) and young (10-12 week old B1 6) mice were injected with CASIN twice daily (2.4 mg/Kg in PBS and 15% EtOH). A group of control mice in each age group were not given the drug. The injections were given 6 hours apart for 5 days. After 28 days, the mice were sacrificed and skin and intestinal samples were processed for immunohistochemistry.
To further assess the effects of in vivo administration of CASIN on aging parameters in the skin, aged mice were treated with CASIN as described in Example 5. The treated and untreated aged and young mice were then tested for skin thickness.

intestinal epithelium = experiment: In vivo rejuvenation of intestinal epithelium (immunohistochemistry); conditions: vs untreated aged mice
Procedure: as §1
To further assess the effects of in vivo administration of CASIN on aging parameters in the intestinal epithelium, aged mice were treated with CASIN as described in Example 5. After 28 days, the mice were sacrificed and intestinal samples were processed for immunohistochemistry, including staining for intestinal stem cell markers Bmi1 and Lgr5.

aged LT-HSCs [2] = experiment: Competitive serial LT-HSC transplantation after ex vivo CASIN treatment; assay type: in vivo, mouse
Procedure: For competitive LT-HSC transplantation, young (2-4-month-old) and aged (20-26-month-old) C57BL/6 mice (Ly5.2^+) were used as donors. 200 LT-HSCs were sorted into 96 multi-well plates and cultured (either in suspension or adherent to fibronectin) for 16 hrs in HBSS+10% FBS±CASIN (5 μM) in a water jacketed incubator at 37° C., 5% CO2, 3% O2. Stem cells were then mixed with 3×10^5 BM cells from young (2-4-month-old) BoyJ competitor mice (Ly5.1^+) and then transplanted into BoyJ recipient mice (Ly5.1^+).
Peripheral blood (PB) chimerism was determined by FACS analysis every 8 weeks. 24 weeks post primary transplants, 2×10^6 BM cells from an individual primary recipient mouse were injected into an individual secondary pre-conditioned recipient BoyJ mouse. Experiment was performed three times with LT-HSCs cultured in suspension and two times with LTHSCs cultured on a fibronectin-coated substrate without any difference in experimental outcome. Primary transplanted mice were regarded engrafted when PB chimerism was higher or equal to 1.0% and contribution was detected in all lineages. Secondary transplanted mice were regarded as engrafted when PB chimerism was higher or equal to 0.5% and contribution was detected in all lineages.
PB and BM cell immunostaining was performed according to standard procedures and samples were analyzed on a LSRII flow cytometer (BD Biosciences). Lineage FACS analysis data are plotted as the percentage of B220+, CD3+ and Myeloid (Gr-1+, Mac-1+ and Gr-1+Mac-1+) cells among donor-derived Ly5.2^+ cells. As for early hematopoiesis analysis, mononuclear cells were isolated by low-density centrifugation (Histopaque 1083, Sigma) and stained with a cocktail of biotinylated lineage antibodies. After lineage depletion by magnetic separation (Dynalbeads, Invitrogen), cells were stained with anti-Sca-1 (clone D7) (eBioscience), anti-c-kit (clone 2B8) (eBioscience), anti-CD34 (clone RAM34) (eBioscience), anti-CD127 (clone A7R34) (eBioscience), anti-Flk-2 (clone A2F10) (eBioscience) and Streptavidin (eBioscience). Early hematopoiesis FACS analysis data were plotted as percentage of long-term hematopoietic stem cells (LTHSCs, gated as LSK CD34−/lowFlk2−), short-term hematopoietic stem cells (ST-HSCs, gated as LSK CD34+Flk2−) and lymphoid-primed multipotent progenitors (LMPPs, gated as LSK CD34+Flk2+) (Adolfsson et al., 2005) distribution among donor-derived LSKs (Linnegc-kit+sca-1+ cells). LSK and common lymphoid progenitor cells (CLP, gated as Lin−c-Kit−/low Sca-1−/low IL7Rα+) (Karsunky et al., 2008) were plotted as percentage among donor-derived Linneg cells. In order to isolate LT-HSCs, lineage depletion was performed to enrich for lineage negative cells. Lineage negative cells were then stained as aforementioned and sorted using a BD FACS Aria I or a BD FACS Aria III (BD Bioscience).

[3] = aged mice treated as in Example 5
[4] = treated aged mice, 25 mm full-thickness excision wounds
[5] = aged mice treated as in Example 5, after 28 days

## OCCNC1CCCc2c1[nH]c1ccc(-c3ccccc3)cc21 (stereo not shown) [CASIN]
Dorsal skin; [3]
  wound healing: respond similarly or nearly identical to the skin of young mice
Dorsal skin; [4]
  loss of wound scabs begins: 17 days
  loss of wound scabs complete in all mice: ≤ 24 days
Aged LT-HSCs [1]
  apoptosis: did not alter; also recorded: doesn't alter
  cell cycle status: did not alter; also recorded: doesn't alter
Skin epithelium; [3]
  skin thickness: approximately equal to that of young mice
Skin epithelium; aged mice, 2.4 mg/Kg twice daily for 5 days, after 28 days, vs untreated aged mice
  number and density of hair follicles: marked improvement
Intestinal epithelium; [5]
  number of stem cells in crypts (Bmi1 and Lgr5 staining): renewed number of stem cells
  shape, size and distribution of villi and crypts: marked improvement
Intestinal epithelium; aged mice, 2.4 mg/Kg twice daily for 5 days, after 28 days
  shape, number and density of crypts: marked improvement
Aged LT-HSCs [2]; primary recipients
  contribution to the B-cell compartment in PB: increase
  contribution to the myeloid lineage: reduced
  frequency of donor-derived LT-HSCs among donor-derived LSKs: significantly reduced
Aged LT-HSCs [2]; secondary transplant
  B-cell and myeloid engraftment in PB and BM: indistinguishable from young LT-HSCs
  contribution to the LT-HSC pool in BM: indistinguishable from young LT-HSCs
Aged LT-HSCs [2]; secondary transplant, compared to aged LT-HSCs
  overall regenerative capacity (chimerism in PB): increased and stable chimerism in PB
